Assay results as given in patent US8470771B2, “Method and medicament for inhibiting the infection of influenza virus” (priority 2007, dated 2013).
Marks after values point to notes of the source that are not given here.

Columns and labels:
influenza virus = format: cell-based
[1] = system: QH-WSN virus (avian influenza virus H5N1); settings: for IC50: QH-WSN virus (avian influenza virus); for Inhibitory rates (%) of QH-WSN: QH-WSN virus (avian influenza virus, 200 μM)
[2] = system: WSN virus (human influenza virus H1N1); settings: for IC50: WSN virus (human influenza virus); for Inhibitory rates (%) of WSN: WSN virus (human influenza virus, 100 μM)
[3] = system: JX virus (human influenza virus H3N2); settings: for IC50: JX virus (human influenza virus); for Inhibitory rates (%) of JX: JX virus (human influenza virus, 200 μM)
[4] = system: 3 subtypes of virus i.e. H5N1, H6N1 and H9N2; settings: read-out: 50% effect concentration (EC50); cited from earlier work

Molecule | Inhibitory rates (%) of QH-WSN [1] | Inhibitory rates (%) of WSN [2] | Inhibitory rates (%) of JX [3] | also measured
KLPDDFMGCV | – | – | – | inhibition of the infection of influenza virus (influenza virus): did not inhibit the infection of influenza virus
CC[C@H](C)[C@H](NC(=O)[C@H](C)NC(=O)[C@H](CCCCN)NC(=O)[C@H](CCC(N)=O)NC(=O)[C@@H](NC(=O)[C@H](CO)NC(=O)[C@H](CCC(=O)O)NC(=O)[C@@H](N)CCCCN)[C@@H](C)O)C(=O)N[C@@H](CC(=O)O)C(=O)NCC(=O)N[C@H](C(=O)N[C@H](C(=O)N[C@@H](C)C(=O)N[C@@H](C)C(=O)N[C@@H](C)C(=O)N[C@@H](C)C(=O)N[C@@H](CC(N)=O)C(=O)N[C@@H](CCCCN)C(=O)N[C@H](C(=O)N[C@@H](CC(N)=O)C(=O)N[C@@H](CO)C(=O)N[C@H](C(=O)N[C@H](C(=O)N[C@@H](CC(=O)O)C(=O)N[C@@H](CCCCN)C(=O)O)[C@@H](C)CC)[C@@H](C)CC)C(C)C)[C@@H](C)O)C(C)C [HR1-2] | – | – | – | IC50 [1]: 104 ± 28.6 µM; IC50 [2]: 110 ± 28.2 µM; IC50 [3]: 112 ± 19.5 µM
CC[C@H](C)[C@H](NC(=O)[C@H](CCCCN)NC(=O)[C@H](CCC(N)=O)NC(=O)[C@@H](NC(=O)[C@H](CO)NC(=O)[C@H](CCC(=O)O)NC(=O)[C@@H](N)CCCCN)[C@@H](C)O)C(=O)N[C@H](C(=O)N[C@@H](CC(=O)O)C(=O)NCC(=O)N[C@H](C(=O)N[C@H](C(=O)N[C@@H](CC(N)=O)C(=O)N[C@@H](CCCCN)C(=O)N[C@H](C(=O)N[C@@H](CC(N)=O)C(=O)N[C@@H](CO)C(=O)N[C@H](C(=O)N[C@H](C(=O)N[C@@H](CC(=O)O)C(=O)N[C@@H](CCCCN)C(=O)O)[C@@H](C)CC)[C@@H](C)CC)C(C)C)[C@@H](C)O)C(C)C)[C@@H](C)CC [HR1-1] | – | – | – | IC50 [1]: 32.7 ± 6.5 µM; IC50 [2]: 29.3 ± 5.7 µM; IC50 [3]: 38.2 ± 7.8 µM
CC[C@H](C)[C@H](NC(=O)[C@H](CCCNC(=N)N)NC(=O)[C@@H](N)CCCNC(=N)N)C(=O)N[C@@H](CCC(=O)O)C(=O)N[C@@H](CC(N)=O)C(=O)N[C@@H](CC(C)C)C(=O)N[C@@H](CC(N)=O)C(=O)N[C@@H](CCCCN)C(=O)N[C@@H](CCCCN)C(=O)N[C@@H](CCSC)C(=O)N[C@@H](CCC(=O)O)C(=O)N[C@@H](CC(=O)O)C(=O)NCC(=O)N[C@@H](Cc1ccccc1)C(=O)N[C@@H](CC(C)C)C(=O)N[C@@H](CC(=O)O)C(=O)N[C@H](C(=O)N[C@@H](Cc1c[nH]c2ccccc12)C(=O)N[C@H](C(=O)N[C@@H](Cc1ccc(O)cc1)C(=O)O)[C@@H](C)O)C(C)C [HR2A] | 56.9* % | 42.0** % | 51.4* % | –
CC(=O)N[C@H]1[C@H]([C@H](O)[C@H](O)CO)OC(C(=O)O)=C[C@@H]1N=C(N)N [Zanamivir] | – | – | – | EC50 [4]: 8.5 to 14 µM
CC(C)C[C@H](NC(=O)[C@H](CCCNC(=N)N)NC(=O)[C@@H](NC(=O)[C@H](CCCCN)NC(=O)[C@H](CC(=O)O)NC(=O)[C@H](Cc1ccc(O)cc1)NC(=O)[C@H](CC(C)C)NC(=O)[C@H](CC(N)=O)NC(=O)[C@H](CCCCN)NC(=O)[C@@H](NC(=O)[C@H](CC(N)=O)NC(=O)[C@H](CO)NC(=O)[C@H](CC(=O)O)NC(=O)[C@H](Cc1c[nH]cn1)NC(=O)[C@@H](N)Cc1ccccc1)C(C)C)C(C)C)C(=O)N[C@@H](CCC(N)=O)C(=O)O [HR2C] | 53.1* % | 29.6** % | 17.1* % | –
CSCC[C@H](NC(=O)[C@H](CC(C)C)NC(=O)[C@@H](NC(=O)[C@H](CC(C)C)NC(=O)[C@H](CC(C)C)NC(=O)[C@H](CCC(=O)O)NC(=O)[C@H](C)NC(=O)[C@@H](N)CC(N)=O)C(C)C)C(=O)N[C@@H](CCC(=O)O)C(=O)N[C@@H](CC(N)=O)C(=O)N[C@@H](CCC(=O)O)C(=O)N[C@@H](CCCNC(=N)N)C(=O)N[C@H](C(=O)N[C@@H](CC(C)C)C(=O)N[C@@H](CC(=O)O)C(=O)N[C@@H](Cc1ccccc1)C(=O)N[C@@H](Cc1c[nH]cn1)C(=O)N[C@@H](CC(=O)O)C(=O)N[C@@H](CO)C(=O)N[C@@H](CC(N)=O)C(=O)N[C@H](C(=O)N[C@@H](CCCCN)C(=O)N[C@@H](CC(N)=O)C(=O)O)C(C)C)[C@@H](C)O [HR2B] | 63.8* % | 43.0** % | 15.2* % | –
